Reference: ChEMBL document CHEMBL3046306, “Synthesis of new compounds derived from metronidazole and amino acids and their esters as antiparasitic agents” (Med Chem Res, 2012)

Key:
Entamoeba histolytica = experiment: Antiparasitic activity against Entamoeba histolytica HK-9 strain ATCC 30015 using trypan blue staining by hemocytometer; type: functional, organism-based
Giardia intestinalis = experiment: Antiparasitic activity against Giardia intestinalis WB strain ATCC 30957 using trypan blue staining by hemocytometer; type: functional, organism-based; conditions: Giardia duodenalis
[1] = Cytotoxicity against Chlorocebus aethiops (African green monkey) Vero cells assessed as concentration at which cell growth as in negative control after 48 hr by hemocytometer; type: cell-based; conditions: chlorocebus sabaeus, read-out: Activity
[2] = Cytotoxicity against Homo sapiens (human) Hep2 cells assessed as concentration at which cell growth as in negative control after 48 hr by hemocytometer; type: cell-based; conditions: HEp-2 cells, read-out: Activity

COC(=O)[C@H](Cc1c[nH]c2ccccc12)NC(=O)Cn1c([N+](=O)[O-])cnc1C
IC50 (Entamoeba histolytica): 8.29 µM
IC50 (Giardia intestinalis): 16.6 µM

Cc1ncc([N+](=O)[O-])n1CC(=O)N[C@@H](Cc1ccccc1)C(=O)O
IC50 (Entamoeba histolytica): 23.4 µM
IC50 (Giardia intestinalis): 22.2 µM

COC(=O)[C@H](Cc1ccc(O)cc1)NC(=O)Cn1c([N+](=O)[O-])cnc1C
IC50 (Entamoeba histolytica): 18.3 µM
IC50 (Giardia intestinalis): 17.8 µM

Cc1ncc([N+](=O)[O-])n1CC(=O)N[C@@H](Cc1cnc[nH]1)C(=O)O
IC50 (Entamoeba histolytica): 16.2 µM
IC50 (Giardia intestinalis): 17.2 µM

COC(=O)[C@@H]1CCCN1C(=O)Cn1c([N+](=O)[O-])cnc1C
IC50 (Entamoeba histolytica): 2.54 µM
IC50 (Giardia intestinalis): 2.7 µM
MNTC at 48 h [1]: 204 µM
MNTC at 48 h [2]: 169 µM

CCOC(=O)C(CCCCNC(=O)Cn1c([N+](=O)[O-])cnc1C)NC(=O)Cn1c([N+](=O)[O-])cnc1C (configuration not stated)
IC50 (Entamoeba histolytica): 3.95 µM
IC50 (Giardia intestinalis): 3.84 µM

COC(=O)[C@H](Cc1ccccc1)NC(=O)Cn1c([N+](=O)[O-])cnc1C
IC50 (Entamoeba histolytica): 22.1 µM
IC50 (Giardia intestinalis): 44.4 µM

COC(=O)[C@H](Cc1cnc[nH]1)NC(=O)Cn1c([N+](=O)[O-])cnc1C
IC50 (Entamoeba histolytica): 8.91 µM
IC50 (Giardia intestinalis): 8.93 µM

Cc1ncc([N+](=O)[O-])n1CCO [METRONIDAZOLE]
IC50 (Entamoeba histolytica): 4.4 µM
IC50 (Giardia intestinalis): 5.17 µM
MNTC at 48 h [1]: 903 µM
MNTC at 48 h [2]: 869 µM

CCOC(=O)[C@H](C)NC(=O)Cn1c([N+](=O)[O-])cnc1C
IC50 (Entamoeba histolytica): 2.1 µM
IC50 (Giardia intestinalis): 2.18 µM
MNTC at 48 h [1]: 72.2 µM
MNTC at 48 h [2]: 69.7 µM

COC(=O)[C@H](CC(=O)O)NC(=O)Cn1c([N+](=O)[O-])cnc1C
IC50 (Entamoeba histolytica): 2.21 µM
IC50 (Giardia intestinalis): 2.26 µM
MNTC at 48 h [1]: 314 µM
MNTC at 48 h [2]: 304 µM

Cc1ncc([N+](=O)[O-])n1CC(=O)N[C@@H](Cc1c[nH]c2ccccc12)C(=O)O
IC50 (Entamoeba histolytica): 17.2 µM
IC50 (Giardia intestinalis): 18 µM
